Structures are written as SMILES. pIC50: −log10 of the molar value.

The target of this assay is T1, human Trk A kinase (Homo sapiens, UniProt P04629).
T1 construct: HIS; made in house; host or cells: SF9 insect cells
T1 sequence (P04629 442-796): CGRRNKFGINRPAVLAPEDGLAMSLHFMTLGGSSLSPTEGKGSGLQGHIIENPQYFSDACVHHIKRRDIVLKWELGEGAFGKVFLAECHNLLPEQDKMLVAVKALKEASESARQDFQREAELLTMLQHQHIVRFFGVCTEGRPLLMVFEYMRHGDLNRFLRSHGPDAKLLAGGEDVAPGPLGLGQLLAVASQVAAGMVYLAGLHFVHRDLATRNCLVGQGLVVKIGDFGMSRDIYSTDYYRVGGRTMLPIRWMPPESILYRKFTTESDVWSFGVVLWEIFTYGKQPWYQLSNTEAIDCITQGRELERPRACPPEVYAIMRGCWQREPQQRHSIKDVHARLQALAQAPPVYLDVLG
Description: Trk A Assay (Alphascreen kinase assay). The assay is classed as biochemical. The conditions noted are these: 70 μM ATP, 20 minutes, room temperature, read-out: IC50 (Trk inhibitory activity). The procedure: Trk A kinase activity was measured for its ability to phosphorylate synthetic tyrosine residues within a generic polypeptide substrate using an Amplified Luminescent Proximity Assay (Alphascreen) technology (PerkinElmer, 549 Albany Street, Boston, Mass.).
To measure Trk A kinase activity, the intracellular domain of a HIS-tagged human Trk A kinase (amino acids 442-796 of Trk A, Swiss-Prot Primary Accession Number P04629) was expressed in SF9 cells and purified using standard nickel column chromatography. After incubation of the kinase with a biotinylated substrate and adenosine triphosphate (ATP) for 20 minutes at room temperature, the kinase reaction was stopped by the addition of 30 mM ethylenediaminetetraacetic acid (EDTA). The reaction was performed in 384 well microtitre plates and the reaction products were detected with the addition of strepavidin coated Donor Beads and phosphotyrosine-specific antibodies coated Acceptor Beads using the EnVision Multilabel Plate Reader after an overnight incubation at room temperature.
On the technique in general: In Alpha technology, singlet oxygen from a donor bead excites a nearby acceptor bead.
For `C[C@H](Nc1nc(Nc2cc(C3CC3)[nH]n2)ncc1C#N)c1ccc(F)cc1` [Example 4, 2-[(5-Cyclopropyl-1H-pyrazol-3-yl)amino]-4-{[(1S)-1-(4-fluorophenyl)ethyl]amino}pyrimidine-5-carbonitrile], the pIC50 was 7.44.

As to `Cc1cnc(Nc2cc(C3CC3)[nH]n2)nc1N[C@@H](CO)c1ccc(F)cc1` [Example 5, (2R)-2-({2-[(5-Cyclopropyl-1H-pyrazol-3-yl)amino]-5-methylpyrimidin-4-yl}amino)-2-(4-fluorophenyl)ethanol], the negative logarithm of the IC50 (pIC50) is 6.97. On to `Cc1cc(Nc2ncc(Cl)c(N[C@@H](CO)c3ccc(F)cc3)n2)n[nH]1` [Example 7, (2R)-2-({5-Chloro-2-[(5-methyl-1H-pyrazol-3-yl)amino]pyrimidin-4-yl}amino)-2-(4-fluorophenyl)ethanol], for which the pIC50 is 5.40.

Broadly, the pIC50 is −log10 of the IC50, conventionally taken in molar units.

The values are drawn from US20080194606A1, “Pyrazolyl-Amino-Substituted Pyrimidines and Their Use in the Treatment of Cancer” (ASTRAZENECA, priority 2005, published 2008).
